From US7071231B2, “Naphthalene ureas as glucose uptake enhancers” (Telik, Inc., priority 1999, dated 2006) come the findings set out here.

Data set [1] has as its system GLUT4 in 3T3 L1 adipocytes. Briefly: Immunofluorescence analysis of GLUT4 mobilization. In kind it is cell-based. The settings on record: 56 μM Compound 15 alone, 1 hr at 37° C. (FIG. 6C). As for the experimental part:
Immunofluorescence Analysis of GLUT4 Mobilization in 3T3 L1 Adipocytes Insulin-dependent transport of glucose into cells utilizes glucose transporter proteins, such as GLUT4. Stimulation with insulin causes these transporters to translocate from storage sites within the cell to the cell membrane, where they facilitate glucose entry. 3T3 L1 adipocytes were grown and differentiated as in Example 11, except that they were grown on a microscope chamber slide. The cells were serum-starved with 0.1% BSA in DMEM for 16 hrs and stimulated with 56 μM Compound 15 alone, 100 nM Insulin for 1 hr at 37° C. The cells were fixed with 3.5% paraformaldehyde for 5 min and permeabilized with 0.2% saponin in 1% BSA, TBS for 5 min followed by incubation with anti-GLUT4 antibody for 30 min at room temperature. The cells were extensively washed and incubated with FITC-conjugated secondary antibody for 30 min at room temperature.

The target of data set [2] is insulin-like growth factor type 1 (IGF-1) receptor (Homo sapiens, UniProt P08069). In words: Selectivity: IGF-1 receptor phosphorylation. Conditions: in the absence or presence of IGF-1. The class given is cell-based.
Chain of insulin-like growth factor type 1 (IGF-1) receptor (P08069 741-1367 limits assumed): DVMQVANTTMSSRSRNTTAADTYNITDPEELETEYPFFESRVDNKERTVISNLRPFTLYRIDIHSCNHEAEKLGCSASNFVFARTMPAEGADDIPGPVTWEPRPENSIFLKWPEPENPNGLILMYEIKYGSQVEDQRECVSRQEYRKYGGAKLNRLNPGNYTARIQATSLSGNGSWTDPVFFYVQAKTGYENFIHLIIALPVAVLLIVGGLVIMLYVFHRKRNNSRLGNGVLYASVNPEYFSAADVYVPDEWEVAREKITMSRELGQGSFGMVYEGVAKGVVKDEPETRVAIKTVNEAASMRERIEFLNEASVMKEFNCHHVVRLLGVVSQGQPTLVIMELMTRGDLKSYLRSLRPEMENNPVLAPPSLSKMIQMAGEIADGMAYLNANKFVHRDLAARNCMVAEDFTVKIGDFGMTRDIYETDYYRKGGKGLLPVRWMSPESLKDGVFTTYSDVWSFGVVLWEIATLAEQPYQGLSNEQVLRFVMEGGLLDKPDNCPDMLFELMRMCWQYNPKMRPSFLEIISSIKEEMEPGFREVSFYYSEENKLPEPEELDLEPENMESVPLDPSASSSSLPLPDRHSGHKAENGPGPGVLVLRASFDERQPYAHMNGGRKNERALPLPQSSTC
Chain of insulin-like growth factor type 1 (IGF-1) receptor (P08069 31-736 partner limits assumed): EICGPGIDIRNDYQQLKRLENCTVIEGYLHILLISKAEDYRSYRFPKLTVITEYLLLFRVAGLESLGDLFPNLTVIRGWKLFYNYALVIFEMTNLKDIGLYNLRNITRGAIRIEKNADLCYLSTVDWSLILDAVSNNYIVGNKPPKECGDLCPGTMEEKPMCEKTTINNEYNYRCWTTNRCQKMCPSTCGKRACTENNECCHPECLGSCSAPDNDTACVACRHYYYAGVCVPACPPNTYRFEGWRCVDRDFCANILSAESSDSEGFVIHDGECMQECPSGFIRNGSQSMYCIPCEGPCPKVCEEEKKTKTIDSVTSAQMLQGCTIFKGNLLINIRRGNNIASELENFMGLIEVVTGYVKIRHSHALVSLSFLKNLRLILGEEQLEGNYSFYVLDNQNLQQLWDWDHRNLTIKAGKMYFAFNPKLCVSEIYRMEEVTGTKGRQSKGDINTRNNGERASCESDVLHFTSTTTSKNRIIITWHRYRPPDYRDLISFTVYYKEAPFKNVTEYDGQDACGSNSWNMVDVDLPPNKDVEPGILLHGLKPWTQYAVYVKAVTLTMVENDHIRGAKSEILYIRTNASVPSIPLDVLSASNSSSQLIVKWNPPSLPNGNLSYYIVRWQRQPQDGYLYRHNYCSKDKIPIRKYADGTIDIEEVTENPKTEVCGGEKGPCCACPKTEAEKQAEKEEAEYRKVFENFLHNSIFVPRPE
The subject of data set [3] is db/db mouse. Briefly: Blood glucose level determination in db/db mouse. The class given is in vivo. The settings on record: compound intraperitoneally, with or without 0.01U insulin s.c.; 0-4 hr (FIGS. 8 and 9). As for the experimental part:
Blood Glucose Level Determination in db/db Mouse.
An accepted model for Type 2 diabetes which has been used to establish the potential anti-diabetic activity of compounds is the db/db mouse. Seven to 9 week old male db/db mice (Jackson Laboratories, Bar Harbor, Me.), were used to the study of the effects of compounds on blood glucose levels. Animals were kept in a 12 h/12 h light/dark cycle, and experiments were initiated immediately after the dark period (7:00 a.m.). Food was removed at this time and returned after the final blood glucose measurement was taken.
Insulin (0.5U/ml, Humulin R, Catalog HI-201, Lilly, Indianapolis, Ind.) was prepared by diluting 100U/mL stock insulin 1:200 with PBS (phosphate buffered saline, Gibco, BRL). Compounds were prepared in a vehicle of either PBS or 20% DMSO in PBS.
Five to 10 animals (average weight 40–50 g) were used in each treatment condition. The animals were injected subcutaneously with either 0.01U insulin in PBS or PBS alone, followed by 0.1 mL of compound or its vehicle delivered intraperitoneally. Blood samples were taken 0 min, 15 min, 30 min, 1 hr, 2 hr and 4 hr after the administration of the drug or vehicle by tail bleeding. Glucose measurements were made with a Glucometer and Glucose strips (Bayer). […]

Data set [4] addresses T1, insulin receptor (Rattus norvegicus, UniProt P15127).
T1 construct: from tissue; host or cells: rat muscle (in vivo oral dosing)
In words: Rat muscle insulin receptor phosphorylation after oral dose. The class given is in vivo. Conditions: STZ/HFD rats, oral dose 30 mg/kg, muscle samples 0.5-6 hr (FIG. 12). As for the experimental part:
Rat Muscle Phosphorylation
Muscle is a particularly important tissue for taking up glucose from the blood in response to insulin receptor stimulation. Activation of muscle insulin receptors is, therefore, an important factor in the control of blood glucose levels. STZ/HFD rats prepared as in Example 18 were given an oral dose of Compound 15 (30 mg/kg), and muscle samples were harvested at different time points (0.5 hr, 1 hr, 2 hr, 3 hr, 4 hr, 6 hr) and homogenized in extraction buffer (50 mM Tris.HCl pH 7.4, 150 mM NaCl, 0.25% sodium deoxycholate, 1% NP40, 1 mM EGTA, 1 mM PMSF, 1 mM Na3VO4, 1 mM NaF, 1 ug/ml each of Aprotinin, Leupeptin and Pepstatin). The tissue homogenate was centrifuged at 12K for 30 min at 4° C., and the supernatants were saved. An equal protein amount from each sample was immunoprecipitated with anti-insulin receptor antibody for 2 hr at 4° C., followed by another 1 hr incubation with Protein G-Agarose beads. The immunecomplexes were washed three times with the extraction buffer, and the samples were boiled in 2× SDS-PAGE loading buffer for 5 min at 100° C. The samples were resolved in a 7.5% SDS-PAGE along with Amersham rainbow marker protein as a molecular weight standard. […]

In data set [5] the test system is male db/db mice. Briefly: Acute toxicity in db/db mice. In kind it is in vivo. The settings on record: i.p., 300 mg/kg in PBS. The method, then:
Compound 15 was administered in PBS vehicle to male db/db mice (i.p.) and male CD rats (p.o.) at 300 mg/kg, which is approximately 10 times its effective dose.

The target of data set [6] is CYP2C9 (Homo sapiens, UniProt P11712). In words: P450 interactions: CYP2C9 inhibition. In kind it is in vitro ADME. Conditions: human cytochromes P450. From the text:
(§1) A major pathway for elimination of drugs from the body, which may limit their effectiveness, is the cytochrome P450 system of the liver.

The target of data set [7] is CYP2C19 (Homo sapiens, UniProt P33261). Briefly: P450 interactions: CYP2C19 inhibition. In kind it is in vitro ADME. Conditions: human cytochromes P450.
Chain of CYP2C19 (P33261 whole entry): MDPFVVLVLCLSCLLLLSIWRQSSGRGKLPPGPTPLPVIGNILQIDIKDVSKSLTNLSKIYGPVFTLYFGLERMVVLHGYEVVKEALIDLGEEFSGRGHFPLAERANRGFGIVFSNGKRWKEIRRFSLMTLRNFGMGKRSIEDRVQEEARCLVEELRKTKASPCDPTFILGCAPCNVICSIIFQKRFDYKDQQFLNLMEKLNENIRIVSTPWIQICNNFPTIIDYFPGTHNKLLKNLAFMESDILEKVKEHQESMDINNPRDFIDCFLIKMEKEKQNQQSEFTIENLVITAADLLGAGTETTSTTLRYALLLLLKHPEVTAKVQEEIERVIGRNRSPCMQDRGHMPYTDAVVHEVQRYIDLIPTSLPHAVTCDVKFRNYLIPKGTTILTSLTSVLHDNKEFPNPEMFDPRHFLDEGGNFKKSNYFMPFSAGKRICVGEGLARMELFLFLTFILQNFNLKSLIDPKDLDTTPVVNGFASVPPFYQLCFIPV
Text: as §1

Data set [8] addresses CYP3A4 (Homo sapiens, UniProt P08684). Briefly: P450 interactions: CYP3A4 inhibition. The class given is in vitro ADME. Conditions: human cytochromes P450.
Text: as §1

Data set [9] in a line: Distribution of compound-[14C]-15 after oral administration. The class given is in vivo, rat. Conditions: STZ/HFD rats, single oral dose 30 mg/kg 14C-labeled, two hours later. As for the experimental part:
Distribution of Compound-[14C]-15 After Oral Administration
STZ/HFD rats, prepared as in Example 19, were given a single oral dose of 30 mg/kg compound-[14C]-15 labeled with 50 μCi of 14C prepared as in Example 11A. Two hours later the animals were euthanized and 200 mg samples of various tissues were removed by an IACUC-approved protocol. The tissue samples were homogenized and their radioactivity content was measured by scintillation counting. The highest levels of radioactivity were found in the pancreas, liver, and thigh muscle. These corresponded to Compound 15 concentrations of approximately 780 nM, 200 nM, and 175 nM, respectively. These concentrations would be sufficient to produce insulin receptor phosphorylation in vitro. Lower levels of radioactivity indicative of 50 nM to 100 nM concentrations of the compound were found in abdominal muscle, fat, kidney, and spleen.

Molecules are shown by their SMILES.

Chain of CYP3A4 (P08684 whole entry): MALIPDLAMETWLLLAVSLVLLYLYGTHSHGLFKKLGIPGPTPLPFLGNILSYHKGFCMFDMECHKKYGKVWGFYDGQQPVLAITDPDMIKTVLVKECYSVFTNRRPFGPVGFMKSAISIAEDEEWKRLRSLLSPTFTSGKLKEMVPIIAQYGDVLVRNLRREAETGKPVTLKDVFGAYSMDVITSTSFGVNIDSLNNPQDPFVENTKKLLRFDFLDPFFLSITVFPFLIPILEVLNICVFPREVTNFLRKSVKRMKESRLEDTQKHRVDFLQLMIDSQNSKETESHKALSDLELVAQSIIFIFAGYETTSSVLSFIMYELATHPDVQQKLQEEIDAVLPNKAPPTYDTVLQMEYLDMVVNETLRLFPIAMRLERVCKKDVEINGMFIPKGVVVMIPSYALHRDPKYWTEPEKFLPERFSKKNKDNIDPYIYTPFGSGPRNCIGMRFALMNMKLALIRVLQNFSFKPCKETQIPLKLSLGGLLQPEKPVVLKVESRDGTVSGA
Chain of CYP2C9 (P11712 whole entry): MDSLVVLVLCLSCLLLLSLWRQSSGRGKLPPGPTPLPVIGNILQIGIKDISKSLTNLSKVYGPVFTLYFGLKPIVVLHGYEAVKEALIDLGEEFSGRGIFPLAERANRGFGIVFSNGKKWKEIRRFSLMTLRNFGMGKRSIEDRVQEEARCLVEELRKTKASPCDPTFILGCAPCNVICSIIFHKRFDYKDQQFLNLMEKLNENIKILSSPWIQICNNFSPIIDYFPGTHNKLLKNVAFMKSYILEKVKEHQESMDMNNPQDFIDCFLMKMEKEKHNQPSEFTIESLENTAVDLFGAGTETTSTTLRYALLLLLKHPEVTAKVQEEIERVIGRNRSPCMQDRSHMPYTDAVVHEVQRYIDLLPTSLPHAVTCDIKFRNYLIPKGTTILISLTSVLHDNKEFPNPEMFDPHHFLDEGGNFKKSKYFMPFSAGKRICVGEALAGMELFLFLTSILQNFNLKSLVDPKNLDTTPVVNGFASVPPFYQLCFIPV
T1 sequence (P15127 764-1383 limits assumed): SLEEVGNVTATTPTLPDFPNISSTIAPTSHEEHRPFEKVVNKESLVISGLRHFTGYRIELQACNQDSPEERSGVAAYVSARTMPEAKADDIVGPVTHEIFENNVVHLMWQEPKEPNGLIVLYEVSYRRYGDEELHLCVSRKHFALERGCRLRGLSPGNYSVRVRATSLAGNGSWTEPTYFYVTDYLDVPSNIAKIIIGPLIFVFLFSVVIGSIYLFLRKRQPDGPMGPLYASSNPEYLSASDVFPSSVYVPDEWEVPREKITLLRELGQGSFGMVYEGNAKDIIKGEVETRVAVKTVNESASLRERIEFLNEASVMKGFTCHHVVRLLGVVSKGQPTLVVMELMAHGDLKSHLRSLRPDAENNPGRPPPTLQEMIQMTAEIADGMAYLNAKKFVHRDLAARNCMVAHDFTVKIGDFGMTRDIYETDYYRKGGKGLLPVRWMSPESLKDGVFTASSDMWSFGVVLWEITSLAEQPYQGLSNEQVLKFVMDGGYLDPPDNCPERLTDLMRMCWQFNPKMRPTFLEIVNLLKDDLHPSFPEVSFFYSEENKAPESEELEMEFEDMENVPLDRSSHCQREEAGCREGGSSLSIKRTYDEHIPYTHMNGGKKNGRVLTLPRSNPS
T1 sequence (P15127 27-759 partner limits assumed): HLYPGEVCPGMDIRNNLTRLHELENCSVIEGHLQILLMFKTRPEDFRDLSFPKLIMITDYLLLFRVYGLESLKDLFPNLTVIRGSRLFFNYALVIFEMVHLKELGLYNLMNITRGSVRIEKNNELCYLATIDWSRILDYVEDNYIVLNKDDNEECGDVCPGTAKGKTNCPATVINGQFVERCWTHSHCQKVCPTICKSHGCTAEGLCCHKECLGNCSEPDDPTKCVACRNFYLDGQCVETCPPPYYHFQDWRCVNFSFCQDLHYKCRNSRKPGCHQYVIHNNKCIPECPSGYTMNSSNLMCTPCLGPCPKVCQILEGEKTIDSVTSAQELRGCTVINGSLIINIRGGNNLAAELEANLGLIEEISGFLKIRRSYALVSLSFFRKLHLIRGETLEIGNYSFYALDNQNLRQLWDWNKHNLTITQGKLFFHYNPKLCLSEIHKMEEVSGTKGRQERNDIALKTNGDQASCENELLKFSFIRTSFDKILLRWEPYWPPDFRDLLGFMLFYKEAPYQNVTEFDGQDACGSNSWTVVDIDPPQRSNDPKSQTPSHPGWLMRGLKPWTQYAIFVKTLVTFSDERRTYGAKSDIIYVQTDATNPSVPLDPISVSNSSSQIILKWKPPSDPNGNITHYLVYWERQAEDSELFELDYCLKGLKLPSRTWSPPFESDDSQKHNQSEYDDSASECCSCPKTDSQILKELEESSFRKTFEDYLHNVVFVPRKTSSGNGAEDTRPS

In the case of `O=C(Nc1ccc2c(O)cc(S(=O)(=O)Nc3cccc(S(=O)(=O)O)c3)cc2c1)Nc1ccc2c(O)cc(S(=O)(=O)Nc3cccc(S(=O)(=O)O)c3)cc2c1` [Compound 15, 3-{[(4-hydroxy-7-{[N-(5-hydroxy-7-{[(3-sulfophenyl)amino]sulfonyl}(2-naphthyl))carbamoyl]amino}-2-naphthyl)sulfonyl]amino}benzenesulfonic acid], the “GLUT4 translocation (immunofluorescence)” value in [1] is “produced apparent translocation of GLUT4 to the cell surface”. Besides, the “phosphorylation of the IGF-1 receptor” value in data set [2] is “not to increase the phosphorylation”. In addition, the “blood glucose levels in db/db mice” value in [3] is “acts in an insulin-independent manner to lower blood glucose levels”. For the same compound, in data set [4], the “phosphorylation of the insulin receptor in muscle” value is listed as “produced an increase in phosphorylation of the insulin receptor”. Moreover, in data set [5], the acute toxicity result is recorded as “No acute toxicity was seen”. Moreover, in data set [6], the “inhibition of catalytic activity of CYP2C9” value is “did not inhibit”. For the same compound, the “inhibition of catalytic activity of CYP2C19” value in [7] is listed as “did not inhibit”. In addition, in [8], the “inhibition of catalytic activity of CYP3A4” value is given as “did not inhibit”. Besides, in [9], the “amount of radioactivity in the blood” value is “not above background levels”; the “tissue concentration, liver” value is about 200 nM; the “tissue concentration, pancreas” value is listed as “approximately 780 nM”; the “tissue concentration, thigh muscle” value is reported as about 175 nM.
